Laboratory results taken from patent US20240010652A1, “COMPOSITIONS AND METHODS FOR TREATING KIT- AND PDGFRA-MEDIATED DISEASES” (Blueprint Medicines Corporation, priority 2020, published 2024).
pIC50: −log10 of the molar value. Counter-ions that a name gives are not always drawn.

Columns and labels:
KIT D816V = KIT D816V (Homo sapiens, UniProt P10721, D816V); assay: KIT (D816V) mutant biochemical enzymatic activity inhibition assay (EZReader 2 mobility shift) at APPKM for ATP; settings: 0.3 nM enzyme, 20 μM ATP (APPKM), 1 μM Src tide, 25° C., 60 minutes; read-out: Kit D816V @ ATP Km IC50
Description: PDGFRα and KIT enzymatic activity was monitored using the Perkin Elmer electrophoretic mobility shift technology platform, the EZReader 2.
Within the linear, steady-state phase of the kinase enzymatic reaction, the mixed pool of phosphorylated (product) and non-phosphorylated (substrate) peptides was passed through the microfluidic system of the PerkinElmer EZ Reader 2, under an applied electric potential difference. The presence of the phosphate group on the product peptide provided a difference in mass and charge between that of the substrate peptide, resulting in a separation of the substrate and product pools in the sample (Perrin et al., Expert Opin Drug Discovery 2010, Jan. 5(1):51-63).
As the product and substrate peptide mixture passes the lasers within the instrument, these pools are detected (λex=488 nm, λem=568 nm) and resolved as separate peaks. The ratio between these peaks reflects the activity of the compound at that concentration, in that well, under those conditions.
All test articles were dissolved in 100% DMSO at a stock concentration of 10 mM. A 100×, 10-point, 4-fold serial dilution of all test compounds was created in 100% DMSO, starting at a relevant concentration, usually 1 mM. A volume of 130 nL of each concentration was transferred to the relevant well of a 384-well assay plate (Greiner 781 201) using a TTPLabtech Mosquito nano-liter dispenser. Using the Multidrop, the remaining constituents of the reaction were then added to the 130 nL of compound as follows:
The reaction was stopped by the addition of 70 μl of Stop buffer (100 mM HEPES pH 7.5, 0.015% Brij 35, 35 mM EDTA and 0.2% of Coating Reagent 3, Caliper Lifesciences). The plate was read on a Caliper EZReader 2. For biochemical D816V and D842V activity, the following designations are used: ≤0.30 nM=A; ≥0.31 and <1.4 nM=B; ≥1.4 nM=C; and ND=not determined.

[1] = Unbound brain to plasma ratio (Kpuu,brain), from brain and plasma concentrations and equilibrium dialysis unbound fractions; assay type: in vivo, Sprague-Dawley rats; settings: Sprague-Dawley, brain homogenate / plasma (unbound), intravenous, 1 mg/kg/hr; rat; calculated from brain and plasma concentrations and fu,brain (brain homogenate equilibrium dialysis), mean
Experimental: (§1) The brain penetration of the compounds disclosed herein was measured in Sprague-Dawley rats (3/compound). The animals received IV infusion of 1 mg/kg/hr of the compound over 8 hours via jugular vein cannulation. At 24 hours, blood was collected via tail vein bleeding or cardiac puncture (under anesthesia) and centrifuged to obtain plasma samples. Brain tissues were collected and homogenized with phosphate-buffered saline (PBS). The concentrations of the compounds were obtained in the plasma and brain homogenates by LC-MS/MS analysis.
Rat plasma protein binding of the tested compounds were evaluated in vitro using an equilibrium dialysis method. The tested compounds were assessed in 100% plasma in a dialysis block for 5 hours at 37° C. Samples from the donor and receiver sides were analyzed by LC-MS/MS. Plasma protein bound and unbound fractions were calculated using the following equations— […]
where: [Donor]5h is measured donor concentration at 5-hour; [Received]5h is measured receiver concentration at 5-hour; fb* is bound fraction determined from plasma; fu,p* is calculated unbound fraction for plasma. […]
Similarly, rat brain protein binding of the tested compounds was also evaluated in vitro using equilibrium dialysis method. […] of the compound was assessed in brain homogenate in a dialysis block for 5 hours at 37° C. Samples from the donor and receiver sides were analyzed by LC-MS/MS. […]

[2] = Brain penetration in rats: brain to plasma ratio (Kp,brain); assay type: in vivo; settings: rat; Sprague-Dawley rats (3/compound), IV infusion 1 mg/kg/hr over 8 hours, plasma and brain homogenate at 24 hours, Cbrain/Cplasma, mean
Description: To understand the brain penetration, brain to plasma ratios of the compounds were obtained in Sprague-Dawley (SD) rats. In vivo equilibrium distribution between blood and brain in preclinical species such as rats is a commonly used parameter to evaluate brain penetration. Kp,brain is the ratio of concentrations in brain and blood (Cbrain/Cplasma). The compound's passive diffusion characteristics, its affinity for membrane transporters at the blood-brain barrier (BBB), and the relative drug binding affinity differences between the plasma proteins and brain tissue influence the Kp,brain. Compounds with Kp,brain smaller than 0.1 have restricted access to the CNS, whereas compounds with Kp,brain greater than 0.3-0.5 are considered to have good brain penetration and compounds with Kp,brain greater than 1 freely cross the BBB (Expert Opin. Drug Delivery (2016) 13 (01): 85-92).
as §1, with “The concentrations of the compounds were obtained in the plasma and brain homogenates by LC-MS/MS analysis.” left out

Sequence of KIT D816V (P10721 26-976 D816V): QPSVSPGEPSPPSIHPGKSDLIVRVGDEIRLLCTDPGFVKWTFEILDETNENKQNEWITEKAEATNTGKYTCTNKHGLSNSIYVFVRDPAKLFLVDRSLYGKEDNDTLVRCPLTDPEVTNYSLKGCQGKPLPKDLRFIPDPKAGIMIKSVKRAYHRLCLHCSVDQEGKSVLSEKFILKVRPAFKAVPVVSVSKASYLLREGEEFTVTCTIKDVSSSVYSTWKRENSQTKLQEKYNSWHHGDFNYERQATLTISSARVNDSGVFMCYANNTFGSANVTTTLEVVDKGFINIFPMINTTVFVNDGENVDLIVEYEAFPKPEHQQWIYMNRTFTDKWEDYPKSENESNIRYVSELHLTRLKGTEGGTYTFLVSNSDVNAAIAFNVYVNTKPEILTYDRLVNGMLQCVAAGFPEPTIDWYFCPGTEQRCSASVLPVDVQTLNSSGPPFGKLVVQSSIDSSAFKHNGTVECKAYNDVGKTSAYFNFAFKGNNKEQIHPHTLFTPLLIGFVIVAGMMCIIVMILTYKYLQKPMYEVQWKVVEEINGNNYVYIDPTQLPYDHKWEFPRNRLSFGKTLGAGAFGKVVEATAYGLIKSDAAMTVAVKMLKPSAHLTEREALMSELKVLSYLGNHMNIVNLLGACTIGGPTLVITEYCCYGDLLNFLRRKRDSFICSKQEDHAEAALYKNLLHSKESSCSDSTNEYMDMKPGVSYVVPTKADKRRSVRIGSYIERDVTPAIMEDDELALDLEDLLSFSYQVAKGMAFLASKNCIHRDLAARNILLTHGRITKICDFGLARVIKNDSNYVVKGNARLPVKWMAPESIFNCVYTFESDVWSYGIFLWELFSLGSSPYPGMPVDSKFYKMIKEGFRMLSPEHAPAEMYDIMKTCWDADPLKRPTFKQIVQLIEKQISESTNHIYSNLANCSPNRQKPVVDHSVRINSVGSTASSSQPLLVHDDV

pIC50 (KIT D816V) | SMILES | Kp uu at 24 h [1] | Kp at 24 h [2]
8.85 to 9.51 | C[C@H](O)Cn1cc(-c2cc3c(N4CCN(c5ncc([C@@](C)(N)c6ccc(F)cc6)cn5)CC4)ncnc3[nH]2)cn1 [Compound 5, (S)-1-(4-(4-(4-(5-((S)-1-amino-1-(4-fluorophenyl)ethyl)pyrimidin-2-yl)piperazin-1-yl)-7H-pyrrolo[2,3-d]pyrimidin-6-yl)-1H-pyrazol-1-yl)propan-2-ol hydrochloride] |  | 
8.85 to 9.51 | C[C@@H](O)Cn1cc(-c2cc3c(N4CCN(c5ncc([C@@](C)(N)c6ccc(F)cc6)cn5)CC4)ncnc3[nH]2)cn1 [Compound 4, (R)-1-(4-(4-(4-(5-((S)-1-amino-1-(4-fluorophenyl)ethyl)pyrimidin-2-yl)piperazin-1-yl)-7H-pyrrolo[2,3-d]pyrimidin-6-yl)-1H-pyrazol-1-yl)propan-2-ol] |  | 
8.85 to 9.51 | C[C@](N)(c1ccc(F)cc1)c1cnc(N2CCN(c3ncnc4[nH]c(-c5cnn(CC6COC6)c5)cc34)CC2)nc1 [Compound 6, (S)-1-(4-fluorophenyl)-1-(2-(4-(6-(1-(oxetan-3-ylmethyl)-1H-pyrazol-4-yl)-7H-pyrrolo[2,3-d]pyrimidin-4-yl)piperazin-1-yl)pyrimidin-5-yl)ethan-1-amine hydrochloride] |  | 
≥ 9.52 | C[C@](N)(c1ccc(F)cc1)c1cnc(N2CCN(c3ncnc4[nH]c(-c5cnn(C6COC6)c5)cc34)CC2)nc1 [Compound 3, (S)-1-(4-fluorophenyl)-1-(2-(4-(6-(1-(oxetan-3-yl)-1H-pyrazol-4-yl)-7H-pyrrolo[2,3-d]pyrimidin-4-yl)piperazin-1-yl)pyrimidin-5-yl)ethan-1-amine] |  | 

SMILES | pIC50 (KIT D816V) | Kp uu at 24 h [1] | Kp at 24 h [2]
C[C@](N)(c1ccc(F)cc1)c1cnc(C2=CCN(c3ncnn4cc(-c5cnn(CCO)c5)cc34)CC2)nc1 [Compound 1, (S)-2-(4-(4-(4-(5-(1-amino-1-(4-fluorophenyl)ethyl)pyrimidin-2-yl)-3,6-dihydropyridin-1(2H)-yl)pyrrolo[2,1-f][1,2,4]triazin-6-yl)-1H-pyrazol-1-yl)ethan-1-ol] | 8.85 to 9.51 | 0.017 | 0.133
C[C@](N)(c1ccc(F)cc1)c1cnc(N2CCN(c3ncnc4[nH]c(-c5cnn(CCO)c5)cc34)CC2)nc1.Cl [Compound 2, (S)-2-(4-(4-(4-(5-(1-amino-1-(4-fluorophenyl)ethyl)pyrimidin-2-yl)piperazin-1-yl)-7H-pyrrolo[2,3-d]pyrimidin-6-yl)-1H-pyrazol-1-yl)ethan-1-ol hydrochloride] | ≥ 9.52 | 0.01 | 0.045
